According to patent US20100196343A1, “COMPOSITIONS, METHODS, DEVICES, AND SYSTEMS FOR SKIN CARE” (priority 2008, published 2010):

Tested on: skin blemishes
Assay: clinical trial: blue light, white light or 4% BPO composition, number of skin blemishes
Type: in vivo
Conditions: subjects (n=55 in trial)
From the text: In another clinical trial, subjects (n=55) were exposed to (a) blue light], (b) white light, or (c) a composition comprising 4% (w/w) benzyol peroxide (BPO). Subjects were re-evaluated weekly during each treatment regime and results are illustrated in FIG. 25. The number of skin blemishes observed on subjects who received blue light therapy dropped by over 35% in the first week and by 55% in the second week. By comparison, the number of skin blemishes observe on subjects who received BPO dropped by just over 20% by the second week and by only 45% after eleven weeks.

O=C(OOC(=O)c1ccccc1)c1ccccc1 [BPO, benzyol peroxide]
number of skin blemishes dropped (after eleven weeks): 45% | number of skin blemishes dropped (by the second week): over 20%
